# System: human A375 melanoma cells
# Assay: Tumor growth of human A375 melanoma cells implanted in SCID mice
# Type: in vivo, mouse
# Settings: 19 days after palpable tumor formation, AKB-6899 17.5 mg/kg, Docetaxel 30 mg/kg
# Procedure: During treatment, tumor growth was determined. Animals were treated with one the following combinations: vehicle/vehicle, vehicle/AKB-6899 (17.5 mg/kg), Docetaxel (30 mg/kg)/vehicle, or Docetaxel/AKB-6899. 19 days after palpable tumor formation, the tumors in the mice receiving the vehicle/AKB-6899 combination had tumors that were 74% the size of control; the tumors in the mice receiving Docetaxel/vehicle combination had tumors that were 49% the size of control; and the tumors in the mice receiving the Docetaxel/AKB-6899 combination had tumors that were 13% the size of control.
smiles,measurement,value
"CC(=O)O[C@@]12CO[C@@H]1C[C@H](O)[C@@]1(C)C(=O)[C@H](O)C3=C(C)[C@@H](OC(=O)[C@H](O)[C@@H](NC(=O)OC(C)(C)C)c4ccccc4)C[C@@](O)([C@@H](OC(=O)c4ccccc4)[C@H]21)C3(C)C [Docetaxel, reference compound]",tumor size relative to control,49%
